Data set [1] can be described thus: Cytotoxicity against human K562 cells assessed as cell growth at 30 to 100 uM after 24 hrs by cell counting kit-8 assay relative to control. It counts as functional.
Data set [2] concerns the target T1, Baculoviral IAP repeat-containing protein 2/Tyrosine-protein kinase ABL1/Breakpoint cluster region protein (Homo sapiens) (UniProt P00519+P11274+Q13490). As to the kind of experiment: Induction of cIAP1-mediated BCR-ABL protein degradation in human K562 cells assessed as BCR-ABL to beta-tubulin ratio at 30 uM after 8 hrs by Western blot analysis relative to control. It counts as cell-based.

Data set [3] has as its target T1, Baculoviral IAP repeat-containing protein 2/Tyrosine-protein kinase ABL1/Breakpoint cluster region protein (Homo sapiens). Put plainly: Induction of cIAP1-mediated BCR-ABL protein degradation in human K562 cells assessed as BCR-ABL to beta-tubulin ratio at 30 uM after 24 hrs by Western blot analysis relative to control. The data set is classed as cell-based. On the technique in general: Immunoblotting shows a protein as a band on a membrane.

Data set [4] shares this target. As to the kind of experiment: Induction of cIAP1-mediated BCR-ABL protein degradation in human K562 cells assessed as BCR-ABL to beta-tubulin ratio at 100 uM after 8 hrs by Western blot analysis relative to control. The data set is classed as cell-based.
The target is the same in data set [5]. As to the kind of experiment: Induction of cIAP1-mediated BCR-ABL protein degradation in human K562 cells assessed as BCR-ABL to beta-tubulin ratio at 100 uM after 24 hrs by Western blot analysis relative to control. It counts as cell-based.
For data set [6], the target named is T2, Bcr/Abl fusion protein (Homo sapiens) (UniProt P00519+P11274). As to the kind of experiment: Inhibition of BCR-ABL phosphorylation in human K562 cells at 100 uM after 8 hrs by Western blot analysis. It counts as cell-based.
T2 sequence (P00519 whole entry, looked up, the tested form may be a part): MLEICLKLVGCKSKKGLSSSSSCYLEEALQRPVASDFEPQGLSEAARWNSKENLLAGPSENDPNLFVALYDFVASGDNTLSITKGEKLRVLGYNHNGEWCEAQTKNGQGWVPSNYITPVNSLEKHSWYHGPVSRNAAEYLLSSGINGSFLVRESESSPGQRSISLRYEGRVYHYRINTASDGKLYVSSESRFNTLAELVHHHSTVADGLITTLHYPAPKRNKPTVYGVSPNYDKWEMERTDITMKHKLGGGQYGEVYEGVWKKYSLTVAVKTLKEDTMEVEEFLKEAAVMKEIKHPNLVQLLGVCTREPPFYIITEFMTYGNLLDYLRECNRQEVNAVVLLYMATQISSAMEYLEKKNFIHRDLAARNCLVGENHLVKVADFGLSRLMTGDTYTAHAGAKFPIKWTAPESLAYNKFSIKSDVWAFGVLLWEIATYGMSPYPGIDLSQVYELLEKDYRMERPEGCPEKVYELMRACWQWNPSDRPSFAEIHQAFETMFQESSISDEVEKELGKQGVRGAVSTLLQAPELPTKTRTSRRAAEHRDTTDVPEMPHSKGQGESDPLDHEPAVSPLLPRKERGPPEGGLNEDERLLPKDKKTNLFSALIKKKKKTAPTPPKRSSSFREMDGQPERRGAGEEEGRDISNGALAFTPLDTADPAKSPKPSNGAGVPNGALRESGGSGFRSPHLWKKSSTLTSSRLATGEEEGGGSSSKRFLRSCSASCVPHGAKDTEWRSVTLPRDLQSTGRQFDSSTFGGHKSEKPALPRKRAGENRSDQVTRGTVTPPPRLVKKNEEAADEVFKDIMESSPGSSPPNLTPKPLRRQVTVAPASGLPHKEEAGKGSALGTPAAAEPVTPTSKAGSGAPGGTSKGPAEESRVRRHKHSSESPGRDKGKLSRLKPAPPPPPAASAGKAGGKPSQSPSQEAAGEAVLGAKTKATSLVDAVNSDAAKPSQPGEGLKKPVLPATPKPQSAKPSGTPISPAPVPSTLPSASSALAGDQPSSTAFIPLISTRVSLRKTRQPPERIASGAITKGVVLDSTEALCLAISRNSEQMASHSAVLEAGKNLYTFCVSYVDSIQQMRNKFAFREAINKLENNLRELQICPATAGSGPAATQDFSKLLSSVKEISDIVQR
T2 sequence (P11274 whole entry, looked up, the tested form may be a part): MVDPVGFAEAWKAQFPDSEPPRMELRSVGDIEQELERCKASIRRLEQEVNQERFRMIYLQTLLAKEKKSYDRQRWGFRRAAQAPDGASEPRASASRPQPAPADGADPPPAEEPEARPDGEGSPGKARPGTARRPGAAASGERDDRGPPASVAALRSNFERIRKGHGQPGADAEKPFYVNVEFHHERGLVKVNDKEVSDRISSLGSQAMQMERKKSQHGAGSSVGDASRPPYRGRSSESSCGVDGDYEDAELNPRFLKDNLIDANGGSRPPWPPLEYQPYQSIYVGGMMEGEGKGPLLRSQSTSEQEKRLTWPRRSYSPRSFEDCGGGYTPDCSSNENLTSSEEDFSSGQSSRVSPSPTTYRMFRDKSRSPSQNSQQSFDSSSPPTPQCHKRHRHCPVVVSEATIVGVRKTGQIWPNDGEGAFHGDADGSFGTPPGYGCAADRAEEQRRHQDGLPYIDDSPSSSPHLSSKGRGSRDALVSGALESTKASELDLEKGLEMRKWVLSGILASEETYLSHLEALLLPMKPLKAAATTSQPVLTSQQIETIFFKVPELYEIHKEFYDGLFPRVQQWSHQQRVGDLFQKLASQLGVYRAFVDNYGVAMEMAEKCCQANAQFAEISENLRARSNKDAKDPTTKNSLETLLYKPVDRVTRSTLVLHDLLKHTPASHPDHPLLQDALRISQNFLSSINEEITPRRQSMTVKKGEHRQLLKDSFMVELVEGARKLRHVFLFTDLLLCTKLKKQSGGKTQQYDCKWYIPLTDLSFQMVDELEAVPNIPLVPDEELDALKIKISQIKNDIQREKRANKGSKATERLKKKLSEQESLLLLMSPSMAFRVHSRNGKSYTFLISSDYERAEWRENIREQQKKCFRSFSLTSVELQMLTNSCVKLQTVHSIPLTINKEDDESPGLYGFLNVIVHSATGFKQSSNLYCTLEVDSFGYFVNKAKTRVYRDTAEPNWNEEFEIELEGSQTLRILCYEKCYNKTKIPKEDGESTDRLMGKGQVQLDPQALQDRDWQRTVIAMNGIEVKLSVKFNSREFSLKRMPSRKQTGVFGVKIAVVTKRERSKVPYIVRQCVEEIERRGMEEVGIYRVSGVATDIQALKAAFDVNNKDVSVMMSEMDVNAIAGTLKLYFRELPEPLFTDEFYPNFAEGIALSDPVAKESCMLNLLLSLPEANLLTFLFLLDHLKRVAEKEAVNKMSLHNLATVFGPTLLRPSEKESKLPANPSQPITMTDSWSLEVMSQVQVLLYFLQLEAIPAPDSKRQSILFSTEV
In data set [7] the target is T2, Bcr/Abl fusion protein (Homo sapiens). Put plainly: Inhibition of BCR-ABL signaling pathway in human K562 cells assessed as suppression of CrkL phosphorylation at 100 uM after 8 hrs by Western blot analysis. It counts as cell-based.
The target is the same in data set [8]. As to the kind of experiment: Inhibition of BCR-ABL signaling pathway in human K562 cells assessed as suppression of STAT5 phosphorylation at 100 uM after 8 hrs by Western blot analysis. The data set is classed as cell-based.
The test system of another data set is K562. As to the kind of experiment: Cytotoxicity against human K562 cells assessed as cell growth inhibition at 30 to 100 uM after 24 hrs by cell counting kit-8 assay. The data set is classed as functional, cell-based. (In general: Tetrazolium assays rely on reduction of a dye to a coloured formazan, in cell work by metabolically active cells.)
A short description of data set [9]: Effect on BCR-ABL protein levels in human K562 cells assessed as BCR-ABL to beta-tubulin ratio at 100 uM after 8 hrs by Western blot analysis relative to control. The data set is classed as ADME, cell-based. The conditions noted are these: k562, 8 h.
For data set [10], the target named is T1, Baculoviral IAP repeat-containing protein 2/Tyrosine-protein kinase ABL1/Breakpoint cluster region protein (Homo sapiens). As to the kind of experiment: Induction of cIAP1-mediated BCR-ABL protein degradation in human K562 cells after 8 hrs by Western blot analysis. It counts as cell-based.
Data set [11] addresses T2, Bcr/Abl fusion protein (Homo sapiens). Put plainly: Inhibition of BCR-ABL phosphorylation in human K562 cells at 100 uM after 8 hrs in presence of imatinib by Western blot analysis. The data set is classed as cell-based.
Data set [12] in a line: Effect on BCR-ABL protein levels in human K562 cells assessed as BCR-ABL to beta-tubulin ratio at 100 uM after 8 hrs in presence of imatinib by Western blot analysis relative to control. The data set is classed as ADME, cell-based. Conditions: k562, 8 h.
For data set [13], the target named is T2, Bcr/Abl fusion protein (Homo sapiens). Put plainly: Inhibition of BCR-ABL signaling pathway in human K562 cells assessed as suppression of STAT5 phosphorylation at 100 uM after 8 hrs in presence of imatinib by Western blot analysis. The data set is classed as cell-based.
Data set [14] has the same target. As to the kind of experiment: Inhibition of BCR-ABL signaling pathway in human K562 cells assessed as suppression of CrkL phosphorylation at 100 uM after 8 hrs in presence of imatinib by Western blot analysis. It counts as cell-based.

The structures appear in SMILES notation. Activity calls are given as the source filed them. The calls are words filed in the database; no cut-off is given here.

T1 sequence (P00519 whole entry, looked up): as the sequence (P00519 whole entry, looked up, the tested form may be a part) above
T1 sequence (P11274 whole entry, looked up): as the sequence (P11274 whole entry, looked up, the tested form may be a part) above
T1 sequence (Q13490 whole entry, looked up): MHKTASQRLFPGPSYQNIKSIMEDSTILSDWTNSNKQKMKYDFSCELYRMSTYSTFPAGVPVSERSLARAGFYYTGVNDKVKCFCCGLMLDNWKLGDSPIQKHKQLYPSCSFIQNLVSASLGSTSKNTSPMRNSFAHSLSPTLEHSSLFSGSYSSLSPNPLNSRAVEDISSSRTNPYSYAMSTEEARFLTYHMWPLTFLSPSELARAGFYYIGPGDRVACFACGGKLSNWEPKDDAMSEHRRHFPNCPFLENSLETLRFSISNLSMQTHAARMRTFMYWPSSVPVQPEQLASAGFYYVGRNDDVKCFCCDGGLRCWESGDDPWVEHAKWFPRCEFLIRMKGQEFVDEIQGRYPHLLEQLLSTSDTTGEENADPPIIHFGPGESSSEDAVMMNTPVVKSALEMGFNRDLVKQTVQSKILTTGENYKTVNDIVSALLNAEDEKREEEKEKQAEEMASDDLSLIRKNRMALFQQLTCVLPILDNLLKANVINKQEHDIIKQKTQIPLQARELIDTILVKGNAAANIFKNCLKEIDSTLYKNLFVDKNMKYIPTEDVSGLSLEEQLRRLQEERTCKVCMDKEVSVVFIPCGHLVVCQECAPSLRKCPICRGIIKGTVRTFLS

Turning to `Cc1ccc(NC(=O)c2ccc(CNC(=O)CCCCNC(=O)[C@H](CC(C)C)NC(=O)[C@@H](O)[C@H](N)Cc3ccccc3)cc2)cc1Nc1nccc(-c2cccnc2)n1.Cl`, the Activity was determined as 100% in data set [1]; 121% in data set [2]; 105% in data set [3]; 113% in [4]; 81% in data set [5].
Consider `Cc1ccc(NC(=O)c2ccc(CNC(=O)CCCCCCNC(=O)[C@H](CC(C)C)NC(=O)[C@@H](O)[C@H](N)Cc3ccccc3)cc2)cc1Nc1nccc(-c2cccnc2)n1.Cl`, for which the inhibition entry in data set [6], in data set [7] and in data set [8] was “Active” throughout. In addition, the Activity was 59% in [2]; 23% in data set [3]; 17% in [4]; 3% in data set [5]; 27% in data set [9]; “Dose-dependent effect” in data set [10]. Moreover, in the data set with K562, the “growth inhibition (GI)” value was “Active”.
Turning to `COC(=O)[C@H](CC(C)C)NC(=O)[C@@H](O)[C@H](N)Cc1ccccc1` [BESTATIN METHYL ESTER], the inhibition entry in [11], in data set [13] and in data set [14] was “Active” throughout. The Activity in data set [12] stood at 99%.
In the case of `Cc1ccc(NC(=O)c2ccc(CNC(=O)CCCCCCCCCCNC(=O)[C@H](CC(C)C)NC(=O)[C@@H](O)[C@H](N)Cc3ccccc3)cc2)cc1Nc1nccc(-c2cccnc2)n1`, the Activity was 77% in data set [2], 14% in [3], 94% in data set [4] and 8% in data set [5]. For the same molecule, in the data set on K562, the “growth inhibition (GI)” value is “Active”.

The record behind these values is ChEMBL document CHEMBL3860080, “Development of BCR-ABL degradation inducers via the conjugation of an imatinib derivative and a cIAP1 ligand” (Bioorg Med Chem Lett, 2016).
